Key:
Adrenergic β2 [1] = target: T1, Adrenergic β2 (Homo sapiens, UniProt P07550); test: Adrenergic β2 mediated cAMP production in H292 cells, single concentration 1 μM; type: cell-based; settings: NCI-H292, 1 μM compound, cAMP as percentage of the maximum response generated by 1E-07M formoterol, read-out: β2 % effect @1 uM
T1 construct: Adherent H292 cells are removed from tissue culture flasks by treatment with Accutase™ cell detachment solution; endogenous in cells; host or cells: H292 cells
How it was run: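 H292 cells pretreated with rolipram (300 μM final) 10 min, then compound at 1 μM final, 1% DMSO, 60 min at room temperature in HBSS/10 mM HEPES pH 7.4/5 mM glucose. Lysate cAMP quantified by AlphaScreen against a standard curve, as % of maximal response to 1E-07M formoterol.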

Adrenergic β2 [2] = target: T1, Adrenergic β2; test: Adrenergic β2 mediated cAMP production in H292 cells (AlphaScreen), concentration response; type: cell-based; settings: for EC50: 60 min, 300 μM rolipram, read-out: β2 pEC50 (converted); for β2 Intrinsic Activity: fraction relative to the maximum activity determined for formoterol
How it was run: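 H292 cells seeded overnight, pretreated 10 min with rolipram (300 μM final), then exposed to compounds 60 min at room temperature in HBSS/10 mM HEPES pH 7.4/5 mM glucose, 1% DMSO. Lysate cAMP quantified by AlphaScreen against a standard curve; four-parameter fit gives pEC50 and intrinsic activity relative to formoterol maximum.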

[3] = target: T2, human muscarinic acetylcholine M3 receptor (Homo sapiens, UniProt P20309); test: Muscarinic 3 receptor binding assay ([3H]NMS competition, SPA), single concentration 1 μM; settings: 1 μM compound; % inhibition specific [3H]-NMS binding
T2 construct: expressed in transfected cells; host or cells: CHO-K1 (Chinese Hamster Ovary) cell membranes
T2 sequence (P20309 whole entry): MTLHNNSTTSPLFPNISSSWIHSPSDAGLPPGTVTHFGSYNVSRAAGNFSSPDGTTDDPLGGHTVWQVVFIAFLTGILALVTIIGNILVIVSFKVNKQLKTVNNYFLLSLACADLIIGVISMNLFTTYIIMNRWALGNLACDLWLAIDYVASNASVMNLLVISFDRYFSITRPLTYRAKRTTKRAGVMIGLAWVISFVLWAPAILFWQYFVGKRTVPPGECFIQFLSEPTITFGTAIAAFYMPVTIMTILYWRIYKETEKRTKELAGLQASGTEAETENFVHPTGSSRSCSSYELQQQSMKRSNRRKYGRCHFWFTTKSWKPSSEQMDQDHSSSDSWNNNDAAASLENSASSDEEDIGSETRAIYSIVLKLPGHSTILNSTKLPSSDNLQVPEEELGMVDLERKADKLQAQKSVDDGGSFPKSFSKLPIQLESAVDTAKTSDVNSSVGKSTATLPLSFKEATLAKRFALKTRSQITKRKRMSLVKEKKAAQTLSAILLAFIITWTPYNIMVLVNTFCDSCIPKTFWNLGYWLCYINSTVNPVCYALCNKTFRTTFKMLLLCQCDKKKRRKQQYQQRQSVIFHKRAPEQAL
How it was run: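 CHO-K1 membranes expressing human M3 on SPA beads, competition with 0.1 nM [3H]NMS (quarter Kd) in 20 mM HEPES pH 7.4, 5 mM MgCl2, 0.1% BSA, 1% DMSO; compound at 1 μM. 16 h at room temperature. Value is % inhibition of specific binding, non-specific defined with 1 μM atropine.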

[4] = target: T2, human muscarinic acetylcholine M3 receptor; test: Muscarinic 3 receptor binding assay ([3H]NMS competition, SPA), pIC50; settings: [3H]NMS 0.1 nM, CHO-K1 cell membranes expressing human M3 receptor
How it was run: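 Competition of [3H]NMS (0.1 nM, quarter Kd) binding to CHO-K1 membranes expressing human M3, SPA format, in 20 mM HEPES pH 7.4, 5 mM MgCl2, 0.1% BSA, 1% DMSO. Incubated 16 h at room temperature; non-specific binding with 1 μM atropine; pIC50 from specific binding.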

T1 sequence (P07550 whole entry): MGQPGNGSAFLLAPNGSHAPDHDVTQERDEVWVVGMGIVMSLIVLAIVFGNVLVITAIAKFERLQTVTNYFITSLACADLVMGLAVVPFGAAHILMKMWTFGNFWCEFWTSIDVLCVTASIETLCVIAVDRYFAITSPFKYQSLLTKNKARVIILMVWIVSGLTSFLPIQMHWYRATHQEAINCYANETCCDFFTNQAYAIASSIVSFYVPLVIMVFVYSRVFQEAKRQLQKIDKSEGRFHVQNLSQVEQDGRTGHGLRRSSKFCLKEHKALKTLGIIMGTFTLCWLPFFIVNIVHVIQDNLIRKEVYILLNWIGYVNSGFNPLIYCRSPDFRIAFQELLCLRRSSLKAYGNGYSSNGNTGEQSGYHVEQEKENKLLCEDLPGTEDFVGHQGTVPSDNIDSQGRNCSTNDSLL

SMILES | percent of formoterol maximum response at 1 µM (Adrenergic β2 [1]) | EC50 (Adrenergic β2 [2]) | β2 Intrinsic Activity (Adrenergic β2 [2]) | inhibition at 1 µM [3] | IC50 [4]
Cc1ccc(C(=O)N2CCOC3(CCN(Cc4cccc(CCOCCC(=O)N(CCNCCc5ccc(O)c6c5OCC(=O)N6)C5CCCCC5)c4)CC3)C2)s1 [Example 154, N-Cyclohexyl-N-(2-(2-(5-hydroxy-3-oxo-3,4-dihydro-2H-benzo[b][1,4]oxazin-8-yl)ethylamino)ethyl)-3-(3-((4-(5-methylthiophene-2-carbonyl)-1-oxa-4,9-diazaspiro[5.5]undecan-9-yl)methyl)phenethoxy)propanamide] | 101% | 100 nM | 1.0 | 101% | 0.316 nM
CCCCc1nc(C(=O)N2CCOC3(CCN(Cc4cccc(CCOCCC(=O)N(CCNCCc5ccc(O)c6c5OCC(=O)N6)C5CCCCC5)c4)CC3)C2)cs1 [Example 175, 3-(3-((4-(2-Butylthiazole-4-carbonyl)-1-oxa-4,9-diazaspiro[5.5]undecan-9-yl)methyl)phenethoxy)-N-cyclohexyl-N-(2-(2-(5-hydroxy-3-oxo-3,4-dihydro-2H-benzo[b][1,4]oxazin-8-yl)ethylamino)ethyl)propanamide] | 86% | 63.1 nM | 1.0 | 100% | 0.316 nM
O=C1COc2c(CCNCCN(C(=O)CCOCCc3cccc(CN4CCC5(CC4)CN(C(=O)c4ccc(C(F)(F)F)cn4)CCO5)c3)C3CCCCC3)ccc(O)c2N1 [Example 149, N-Cyclohexyl-N-(2-(2-(5-hydroxy-3-oxo-3,4-dihydro-2H-benzo[b][1,4]oxazin-8-yl)ethylamino)ethyl)-3-(3-((4-(5-(trifluoromethyl)picolinoyl)-1-oxa-4,9-diazaspiro[5.5]undecan-9-yl)methyl)phenethoxy)propanamide] | 90% | 126 nM | 1.0 | 99% | 0.501 nM
Cc1csc(C(=O)N2CCOC3(CCN(Cc4cccc(CCOCCC(=O)N(CCNCCc5ccc(O)c6c5OCC(=O)N6)C5CCCCC5)c4)CC3)C2)c1 [Example 138, N-Cyclohexyl-N-(2-(2-(5-hydroxy-3-oxo-3,4-dihydro-2H-benzo[b][1,4]oxazin-8-yl)ethylamino)ethyl)-3-(3-((4-(4-methythiophene-2-carbonyl)-1-oxa-4,9-diazaspiro[5.5]undecan-9-yl)methyl)phenethoxy)propanamide] | 92% | 126 nM | 0.9 | 100% | 0.2 nM
Cc1ccn2cc(C(=O)N3CCOC4(CCN(Cc5cccc(CCOCCC(=O)N(CCNCCc6ccc(O)c7c6OCC(=O)N7)C6CCCCC6)c5)CC4)C3)nc2c1 [Example 150, N-Cyclohexyl-N-(2-(2-(5-hydroxy-3-oxo-3,4-dihydro-2H-benzo[b][1,4]oxazin-8-yl)ethylamino)ethyl)-3-(3-((4-(7-methylimidazo[1,2-a]pyridine-2-carbonyl)-1-oxa-4,9-diazaspiro[5.5]undecan-9-yl)methyl)phenethoxy)propanamide] | 104% | 79.4 nM | 0.5 | 99% | 3.16 nM
O=C1COc2c(CCNCCN(C(=O)CCOCCc3cccc(CN4CCC5(CC4)CN(C(=O)[C@@H]4C[C@H]4c4ccccc4)CCO5)c3)C3CCCCC3)ccc(O)c2N1 [Example 167, N-Cyclohexyl-N-(2-(2-(5-hydroxy-3-oxo-3,4-dihydro-2H-benzo[b][1,4]oxazin-8-yl)ethylamino)ethyl)-3-(3-((4-((1R,2R)-2-phenylcyclopropanecarbonyl)-1-oxa-4,9-diazaspiro[5.5]undecan-9-yl)methyl)phenethoxy)propanamide] | 105% | 100 nM | 0.4 | 101% | 0.316 nM
O=C1COc2c(CCNCCN(C(=O)CCOCCc3cccc(CN4CCC5(CC4)CN(C(=O)c4csc(CC(F)(F)F)n4)CCO5)c3)C3CCCCC3)ccc(O)c2N1 [Example 174, N-Cyclohexyl-N-(2-(2-(5-hydroxy-3-oxo-3,4-dihydro-2H-benzo[b][1,4]oxazin-8-yl)ethylamino)ethyl)-3-(3-((4-(2-(2,2,2-trifluoroethyl)thiazole-4-carbonyl)-1-oxa-4,9-diazaspiro[5.5]undecan-9-yl)methyl)phenethoxy)propanamide] | 88% | 50.1 nM | 1.0 | 100% | 0.251 nM

Reference: patent US8476265B2, “Compounds-801” (AstraZeneca AB, priority 2010, dated 2013)
